The values below are quoted from earlier work in US7312207B2, “Topical steroid cream formulations” (Taro Pharmaceuticals North America, Inc., priority 2004, dated 2007).

On to `C[C@@H]1C[C@H]2[C@@H]3CCC4=CC(=O)C=C[C@]4(C)[C@@]3(Cl)[C@@H](O)C[C@]2(C)[C@@]1(OC(=O)c1ccco1)C(=O)CCl` [Mometasone furoate, 9(alpha), 21-Dichloro-11(beta), 17-dihydroxy-16(alpha)-methylpregna-1,4-diene-3,20 dione 17-(2-furoate)], for which the “solubility in ethyl alcohol” value (ethyl alcohol) is listed as “moderately soluble”. Further, the solubility in octanol result (octanol) is given as “slightly soluble”. Further, for the setting “water”, the solubility in water result is “insoluble”.
